In patent US11661426B2, “Imidazole-containing inhibitors of ALK2 kinase” (BioCryst Pharmaceuticals, Inc., priority 2017, dated 2023) one finds IC50 data, which are given here for 29 molecules.

The term IC50 denotes the concentration needed to halve the response being measured.

ALK2, sequence (Q04771 21-509): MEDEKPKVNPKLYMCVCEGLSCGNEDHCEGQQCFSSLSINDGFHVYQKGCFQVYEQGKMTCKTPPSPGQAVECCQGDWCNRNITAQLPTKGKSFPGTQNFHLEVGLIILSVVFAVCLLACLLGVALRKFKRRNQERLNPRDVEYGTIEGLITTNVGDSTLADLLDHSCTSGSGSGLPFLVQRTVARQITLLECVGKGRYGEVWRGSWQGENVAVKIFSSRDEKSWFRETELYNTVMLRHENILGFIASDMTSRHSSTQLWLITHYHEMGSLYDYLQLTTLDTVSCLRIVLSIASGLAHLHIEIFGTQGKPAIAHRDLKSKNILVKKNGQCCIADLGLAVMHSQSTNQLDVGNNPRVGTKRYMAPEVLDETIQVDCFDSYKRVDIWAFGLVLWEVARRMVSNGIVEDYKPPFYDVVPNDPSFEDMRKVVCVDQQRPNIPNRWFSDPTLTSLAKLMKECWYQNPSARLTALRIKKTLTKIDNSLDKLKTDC

The assay addresses ALK2 (Homo sapiens (Human), UniProt Q04771). In words: ALK2 inhibition, LanthaScreen Eu Kinase Binding Assay (ThermoFisher Scientific / Life Technologies). As to conditions: read-out: Measured Ki (IC50) Value for Compounds: IC50. As to the method: Biochemical assays to measure the inhibitory effects of the compounds were performed by ThermoFisher Scientific (Life Technologies). ALK2 inhibition was tested using LanthaScreen™ Eu Kinase Binding Assay screening protocol.
In general terms: Time-resolved FRET reads energy transfer from a long-lived donor to a nearby acceptor.
With `COc1cc(-n2cnc(Nc3nc(N4CCC[C@H]4C(N)=O)nc4c3ccn4S(=O)(=O)c3ccc(C)cc3)c2)cc(OC)c1OC` [Compound 142a, (S)-1-(7-tosyl-4-((1-(3,4,5-trimethoxyphenyl)-1H-imidazol-4-yl)amino)-7H-pyrrolo[2,3-d]pyrimidin-2-yl)pyrrolidine-2-carboxamide], the IC50 was < 100 nM.

For `COc1cc(-n2cnc(Nc3nc(N4CCC[C@H]4C(N)=O)nc4[nH]ccc34)c2)cc(OC)c1OC` [Compound 142b, (S)-1-(4-((1-(3,4,5-trimethoxyphenyl)-1H-imidazol-4-yl)amino)-7H-pyrrolo[2,3-d]pyrimidin-2-yl)pyrrolidine-2-carboxamide], the half-maximal inhibitory concentration (IC50) was < 100 nM.

In the case of `COc1cc(-n2cnc(Nc3nc(N4CCC[C@H]4C(N)=O)nc4c(OC(C)C)cccc34)c2)cc(OC)c1OC` [Compound 143h, (S)-1-(8-isopropoxy-4-((1-(3,4,5-trimethoxyphenyl)-1H-imidazol-4-yl)amino)quinazolin-2-yl)pyrrolidine-2-carboxamide], the IC50 is < 100 nM.

With `COc1cc(-n2cnc(Nc3nc(N4CCC[C@H]4CO)nc4c(OC(C)C)cccc34)c2)cc(OC)c1OC` [Compound 144a, (S)-(1-(8-isopropoxy-4-((1-(3,4,5-trimethoxyphenyl)-1H-imidazol-4-yl)amino)quinazolin-2-yl)pyrrolidin-2-yl)methanol], the IC50 is < 100 nM.

In the case of `COc1cc(-n2cnc(Nc3nc(N4CCC[C@H]4CO)nc4cc(OC(C)C)ccc34)c2)cc(OC)c1OC` [Compound 145h, (S)-(1-(7-isopropoxy-4-((1-(3,4,5-trimethoxyphenyl)-1H-imidazol-4-yl)amino)quinazolin-2-yl)pyrrolidin-2-yl)methanol], the half-inhibitory concentration (IC50) is < 100 nM.

With `COc1cc(-n2cnc(Nc3nc(-c4cccc(C(N)=O)c4)nc4sccc34)c2)cc(OC)c1OC` [Compound 146a, 3-(4-((1-(3,4,5-trimethoxyphenyl)-1H-imidazol-4-yl)amino)thieno[2,3-d]pyrimidin-2-yl)benzamide], the IC50 is < 100 nM.

Consider `COc1cc(-n2cnc(Nc3nc(N4CCC[C@H]4C(N)=O)c4cccn4n3)c2)cc(OC)c1OC` [Compound 147b, (S)-1-(2-((1-(3,4,5-trimethoxyphenyl)-1H-imidazol-4-yl)amino)pyrrolo[2,1-f][1,2,4]triazin-4-yl)pyrrolidine-2-carboxamide], for which the IC50 was > 1000 nM.

Turning to `COc1cc(-n2cnc(Nc3nc(N4CCC[C@H]4CO)c4occc4n3)c2)cc(OC)c1OC` [Compound 148b, (S)-(1-(2-((1-(3,4,5-trimethoxyphenyl)-1H-imidazol-4-yl)amino)furo[3,2-d]pyrimidin-4-yl)pyrrolidin-2-yl)methanol], the IC50 was < 100 nM.

For `COc1cc(-n2cnc(Nc3nc(N4CCC[C@H]4CO)nc4c3CN(Cc3ccccc3)CC4)c2)cc(OC)c1OC` [Compound 149c, (S)-(1-(6-benzyl-4-((1-(3,4,5-trimethoxyphenyl)-1H-imidazol-4-yl)amino)-5,6,7,8-tetrahydropyrido[4,3-d]pyrimidin-2-yl)pyrrolidin-2-yl)methanol], the IC50 is 100 to 1000 nM.

Consider `COc1cc(-n2cnc(Nc3nc(N4CCC[C@H]4CO)c4ncsc4n3)c2)cc(OC)c1OC` [Compound 150c, (S)-(1-(5-((1-(3,4,5-trimethoxyphenyl)-1H-imidazol-4-yl)amino)thiazolo[5,4-d]pyrimidin-7-yl)pyrrolidin-2-yl)methanol], for which the IC50 is < 100 nM.

Take `COc1cc(-n2cnc(Nc3nc(N4CCC[C@H]4C(N)=O)c4occc4n3)c2)cc(OC)c1OC` [Compound 151b, (S)-1-(2-((1-(3,4,5-trimethoxyphenyl)-1H-imidazol-4-yl)amino)furo[3,2-d]pyrimidin-4-yl)pyrrolidine-2-carboxamide]: the half-inhibitory concentration (IC50) lay within 100 to 1000 nM.

On to `COc1cc(-n2cnc(Nc3nc(N4CCC[C@H]4C(N)=O)nc4c3CN(Cc3ccccc3)CC4)c2)cc(OC)c1OC` [Compound 152a, (S)-1-(6-benzyl-4-(1-(3,4,5-trimethoxyphenyl)-1H-imidazol-4-ylamino)-5,6,7,8-tetrahydropyrido[4,3-d]pyrimidin-2-yl)pyrrolidine-2-carboxamide], for which the IC50 fell in the range of 100 to 1000 nM.

For `COc1cc(-n2cnc(Nc3nc(N4CCC[C@H]4CO)nc4c3CCN(Cc3ccccc3)C4)c2)cc(OC)c1OC` [Compound 153c, (S)-(1-(7-benzyl-4-((1-(3,4,5-trimethoxyphenyl)-1H-imidazol-4-yl)amino)-5,6,7,8-tetrahydropyrido[3,4-d]pyrimidin-2-yl)pyrrolidin-2-yl)methanol], the IC50 was < 100 nM.

As to `COc1cc(-n2cnc(Nc3nc(N4CCC[C@H]4C(N)=O)nc4c3CCN(Cc3ccccc3)C4)c2)cc(OC)c1OC` [Compound 154a, (S)-1-(7-benzyl-4-((1-(3,4,5-trimethoxyphenyl)-1H-imidazol-4-yl)amino)-5,6,7,8-tetrahydropyrido[3,4-d]pyrimidin-2-yl)pyrrolidine-2-carboxamide], the IC50 is < 100 nM.

For the molecule `COc1cc(-n2cnc(Nc3nc(N4CCC[C@H]4C(N)=O)nc4sccc34)c2)cc(OC)c1OC` [Compound 155a, (S)-1-(4-((1-(3,4,5-trimethoxyphenyl)-1H-imidazol-4-yl)amino)thieno[2,3-d]pyrimidin-2-yl)pyrrolidine-2-carboxamide], the 50% inhibitory concentration (IC50) was < 100 nM.

As for `COc1cc(-n2cnc(Nc3nc(N4CCCC4)nn4cccc34)c2)cc(OC)c1OC` [Compound 156a, 2-(pyrrolidin-1-yl)-N-(1-(3,4,5-trimethoxyphenyl)-1H-imidazol-4-yl)pyrrolo[2,1-f][1,2,4]triazin-4-amine], the IC50 was < 100 nM.

For the molecule `COc1cc(-n2cnc(Nc3nc(-c4ccccc4C(N)=O)nc4sccc34)c2)cc(OC)c1OC` [Compound 157a, 2-(4-((1-(3,4,5-trimethoxyphenyl)-1H-imidazol-4-yl)amino)thieno[2,3-d]pyrimidin-2-yl)benzamide], the IC50 was < 100 nM.

With `COc1cc(-n2cnc(Nc3nc(N4CCC[C@H]4C(N)=O)nc4scnc34)c2)cc(OC)c1OC` [Compound 158b, (S)-1-(7-((1-(3,4,5-trimethoxyphenyl)-1H-imidazol-4-yl)amino)thiazolo[5,4-d]pyrimidin-5-yl)pyrrolidine-2-carboxamide], the IC50 was < 100 nM.

As to `COc1cc(-n2cnc(Nc3nc(N4CCC[C@H]4CO)c4ccn(S(=O)(=O)c5ccc(C)cc5)c4n3)c2)cc(OC)c1OC` [Compound 159b, (S)-(1-(7-tosyl-2-((1-(3,4,5-trimethoxyphenyl)-1H-imidazol-4-yl)amino)-7H-pyrrolo[2,3-d]pyrimidin-4-yl)pyrrolidin-2-yl)methanol], the IC50 was > 1000 nM.

On to `COc1cc(-n2cnc(Nc3nc(N4CCC[C@H]4CO)c4cc[nH]c4n3)c2)cc(OC)c1OC` [Compound 159c, (S)-(1-(2-((1-(3,4,5-trimethoxyphenyl)-1H-imidazol-4-yl)amino)-7H-pyrrolo[2,3-d]pyrimidin-4-yl)pyrrolidin-2-yl)methanol], for which the IC50 is < 100 nM.

In the case of `COc1cc(-n2cnc(Nc3nc(N4CCC[C@H]4CO)nc4ccn(S(=O)(=O)c5ccc(C)cc5)c34)c2)cc(OC)c1OC` [Compound 160c, (S)-(1-(5-tosyl-4-((1-(3,4,5-trimethoxyphenyl)-1H-imidazol-4-yl)amino)-5H-pyrrolo[3,2-d]pyrimidin-2-yl)pyrrolidin-2-yl)methanol], the IC50 was > 1000 nM.

As to `COc1cc(-n2cnc(Nc3nc(N4CCC[C@H]4CO)nc4cc[nH]c34)c2)cc(OC)c1OC` [Compound 160d, (S)-(1-(4-((1-(3,4,5-trimethoxyphenyl)-1H-imidazol-4-yl)amino)-5H-pyrrolo[3,2-d]pyrimidin-2-yl)pyrrolidin-2-yl)methanol], the IC50 is < 100 nM.

Regarding `COc1cc(-n2cnc(Nc3nc(N4CCC[C@H]4C(N)=O)nc4cccnc34)c2)cc(OC)c1OC` [Compound 161a, (S)-1-(4-((1-(3,4,5-trimethoxyphenyl)-1H-imidazol-4-yl)amino)pyrido[3,2-d]pyrimidin-2-yl)pyrrolidine-2-carboxamide], the IC50 lay within 100 to 1000 nM.

In the case of `COc1cc(-n2cnc(Nc3nc(N4CCC[C@H]4C(N)=O)nc4ccn(S(=O)(=O)c5ccc(C)cc5)c34)c2)cc(OC)c1OC` [Compound 162a, (S)-1-(5-tosyl-4-((1-(3,4,5-trimethoxyphenyl)-1H-imidazol-4-yl)amino)-5H-pyrrolo[3,2-d]pyrimidin-2-yl)pyrrolidine-2-carboxamide], the IC50 is 100 to 1000 nM.

For the molecule `COc1cc(-n2cnc(Nc3nc(N4CCC[C@H]4C(N)=O)nc4cc[nH]c34)c2)cc(OC)c1OC` [Compound 162b, (S)-1-(4-((1-(3,4,5-trimethoxyphenyl)-1H-imidazol-4-yl)amino)-5H-pyrrolo[3,2-d]pyrimidin-2-yl)pyrrolidine-2-carboxamide], the IC50 is < 100 nM.

With `COc1cc(-n2cnc(Nc3nc(N4CCCC4)nc4c3ccn4S(=O)(=O)c3ccc(C)cc3)c2)cc(OC)c1OC` [Compound 163a, 2-(pyrrolidin-1-yl)-7-tosyl-N-(1-(3,4,5-trimethoxyphenyl)-1H-imidazol-4-yl)-7H-pyrrolo[2,3-d]pyrimidin-4-amine], the IC50 lay within 100 to 1000 nM.

As for `COc1cc(-n2cnc(Nc3nc(N4CCC[C@H]4CO)nc4scnc34)c2)cc(OC)c1OC` [Compound 164a, (S)-(1-(7-((1-(3,4,5-trimethoxyphenyl)-1H-imidazol-4-yl)amino)thiazolo[5,4-d]pyrimidin-5-yl)pyrrolidin-2-yl)methanol], the IC50 is < 100 nM.

For the molecule `COc1cc(-n2cnc(Nc3nc4c(c(N5CCC[C@H]5CO)n3)CCN(Cc3ccccc3)C4)c2)cc(OC)c1OC` [Compound 165b, (S)-(1-(7-benzyl-2-((1-(3,4,5-trimethoxyphenyl)-1H-imidazol-4-yl)amino)-5,6,7,8-tetrahydropyrido[3,4-d]pyrimidin-4-yl)pyrrolidin-2-yl)methanol], the IC50 is < 100 nM.

On to `COc1cc(-n2cnc(Nc3nc4c(c(N5CCC[C@H]5C(N)=O)n3)CCN(Cc3ccccc3)C4)c2)cc(OC)c1OC` [Compound 166b, (S)-1-(7-benzyl-2-((1-(3,4,5-trimethoxyphenyl)-1H-imidazol-4-yl)amino)-5,6,7,8-tetrahydropyrido[3,4-d]pyrimidin-4-yl)pyrrolidine-2-carboxamide], for which the IC50 was < 100 nM.
